From US12446584B2, “Termiticide composition and methods for treating termites” (ADAMA MAKHTESHIM LTD., priority 2013, dated 2025)
Read-outs that look alike come from different tables or passages of the source.

Key:
Format in all cases: in vivo
[1] = tested on: Formosan subterranean termites (Coptotermes formosanus); test: Thin plate bioassay; settings: 0.05% solution
Experimental: (§1) A laboratory study was conducted, using recently collected R. flavipes and C. formosanus. Thin plate bioassays were assembled using 0.6 cm glass and 0.6 cm clear Lexan. A sheet of 20.3×66 cm glass was used for the bottom. Two pieces of 2.5×61 cm glass were laid along the long edges, and two pieces of […]. Each arena had 450 g of screened sand evenly applied, and moistened with deionized water to help hold it in place during construction of the arenas. Fisher brand tongue depressors, cut in half, were used as a food source for the termites, and placed at one end of the arena. Prior to adding the Lexan top sheets, 0.6 cm holes were drilled at one end, and three 0.6 cm treatment apertures were drilled equally spaced apart at the center line. One 8 cm Petri dish with a 0.6 cm hole drilled in the bottom was lined up with the hole at the end of the top sheet, and glued down. Glue was allowed to dry for 72 hours. Large binder clips were used to hold the arena together.
(§2) Termiticide solutions were prepared as follows: Fipronil 0.017%; Fipronil 0.03%; Imidacloprid 0.05%; Imi-Fip 0.067% (Imidacloprid 0.05%, Fipronil 0.017%); and Untreated Control (water only). Ten ml of each finished solution of termiticide were applied to each arena: each of the three treatment apertures received 3.3 ml of termiticide. The treatments were allowed to dry for 24 hours, and the treatment apertures were covered with a 2.5×7.5 cm microscope slide. In each Petri dish, 500 worker and 15 soldier termites were added, using either R. flavipes or C. formosanus. Each treatment was replicated four times. Data regarding distance tunneled and mortality were collected daily for eight days. Data was analyzed using Analysis of Variance (ANOVA) and means were separated by Tukey's HSD (Honest Significant Difference test (IBM SPSS v 19).

[2] = tested on: Eastern subterranean termites (Reticulitermes flavipes); test: Thin plate bioassay; settings: 0.05% solution
Experimental: as §1, §2

[3] = tested on: Formosan Coptotermes formosanus termites; test: Transfer effects among nestmates (donor/recipient Petri dish arenas); settings: donors treated with 50 ppm; for mortality at 50 ppm: Coptotermes formosanus
Experimental: (§3) The purpose of this study was to determine whether there is transference of […] among nestmates of subterranean termites. Arenas for this study consisted of a 15 cm Petri dish. […] Donor and untreated marked control termites were marked using RustOleum® Marking Paint, using methodology described by Keefer et al. 2012.
(§4) Two untreated soldier termites for each species were added to each arena to simulate colony dynamics. Post-treatment observations for mortality were made at 4 h and then daily through day 7.

[4] = tested on: Eastern Subterranean Reticulitermes flavipes termites; test: as above; settings: donors treated with 50 ppm; for mortality at 50 ppm: Reticulitermes flavipes
Experimental: as §3, §4

[5] = 4 h, by treatment (all ratios), 4 h, read-out: Mean % mortality of donors and recipients
[6] = 4 h, donor:recipient ratio 1:19, 4 h, read-out: Mean total % mortality of donors and recipients
[7] = 4 h, donor:recipient ratio 5:15, 4 h, read-out: Mean total % mortality of donors and recipients
[8] = 4 h, donor:recipient ratio 10:10, 4 h, read-out: Mean total % mortality of donors and recipients
[9] = 4 h, donor:recipient ratio 15:5, 4 h, read-out: Mean total % mortality of donors and recipients
[10] = 24 h, by treatment (all ratios), 1 d, read-out: Mean % mortality of donors and recipients
[11] = 24 h, donor:recipient ratio 1:19, 1 d, read-out: Mean total % mortality of donors and recipients
[12] = 24 h, donor:recipient ratio 5:15, 1 d, read-out: Mean total % mortality of donors and recipients
[13] = 24 h, donor:recipient ratio 10:10, 1 d, read-out: Mean total % mortality of donors and recipients
[14] = 24 h, donor:recipient ratio 15:5, 1 d, read-out: Mean total % mortality of donors and recipients
[15] = 48 h, by treatment (all ratios), 2 d, read-out: Mean % mortality of donors and recipients
[16] = 48 h, donor:recipient ratio 1:19, 2 d, read-out: Mean total % mortality of donors and recipients
[17] = 48 h, donor:recipient ratio 5:15, 2 d, read-out: Mean total % mortality of donors and recipients
[18] = 48 h, donor:recipient ratio 10:10, 2 d, read-out: Mean total % mortality of donors and recipients
[19] = 48 h, donor:recipient ratio 15:5, 2 d, read-out: Mean total % mortality of donors and recipients
[20] = 72 h, by treatment (all ratios), 3 d, read-out: Mean % mortality of donors and recipients
[21] = 72 h, donor:recipient ratio 1:19, 3 d, read-out: Mean total % mortality of donors and recipients
[22] = 72 h, donor:recipient ratio 5:15, 3 d, read-out: Mean total % mortality of donors and recipients
[23] = 72 h, donor:recipient ratio 10:10, 3 d, read-out: Mean total % mortality of donors and recipients
[24] = 72 h, donor:recipient ratio 15:5, 3 d, read-out: Mean total % mortality of donors and recipients
[25] = 96 h, by treatment (all ratios), 4 d, read-out: Mean % mortality of donors and recipients
[26] = 96 h, donor:recipient ratio 1:19, 4 d, read-out: Mean total % mortality of donors and recipients
[27] = 96 h, donor:recipient ratio 5:15, 4 d, read-out: Mean total % mortality of donors and recipients
[28] = 96 h, donor:recipient ratio 10:10, 4 d, read-out: Mean total % mortality of donors and recipients
[29] = 96 h, donor:recipient ratio 15:5, 4 d, read-out: Mean total % mortality of donors and recipients
[30] = 120 h, by treatment (all ratios), 5 d, read-out: Mean % mortality of donors and recipients
[31] = 120 h, donor:recipient ratio 1:19, 5 d, read-out: Mean total % mortality of donors and recipients
[32] = 120 h, donor:recipient ratio 5:15, 5 d, read-out: Mean total % mortality of donors and recipients
[33] = 120 h, donor:recipient ratio 10:10, 5 d, read-out: Mean total % mortality of donors and recipients
[34] = 120 h, donor:recipient ratio 15:5, 5 d, read-out: Mean total % mortality of donors and recipients
[35] = 144 h, by treatment (all ratios), 6 d, read-out: Mean % mortality of donors and recipients
[36] = 144 h, donor:recipient ratio 1:19, 6 d, read-out: Mean total % mortality of donors and recipients
[37] = 144 h, donor:recipient ratio 5:15, 6 d, read-out: Mean total % mortality of donors and recipients
[38] = 144 h, donor:recipient ratio 10:10, 6 d, read-out: Mean total % mortality of donors and recipients
[39] = 144 h, donor:recipient ratio 15:5, 6 d, read-out: Mean total % mortality of donors and recipients
[40] = 168 h, by treatment (all ratios), 7 d, read-out: Mean % mortality of donors and recipients
[41] = 168 h, donor:recipient ratio 1:19, 7 d, read-out: Mean total % mortality of donors and recipients
[42] = 168 h, donor:recipient ratio 5:15, 7 d, read-out: Mean total % mortality of donors and recipients
[43] = 168 h, donor:recipient ratio 10:10, 7 d, read-out: Mean total % mortality of donors and recipients
[44] = 168 h, donor:recipient ratio 15:5, 7 d, read-out: Mean total % mortality of donors and recipients

Structure (SMILES): O=[N+]([O-])NC1=NCCN1Cc1ccc(Cl)nc1 [Imidacloprid, N-[1-[(6-Chloro-3-pyridyl)methyl]-4,5-dihydroimidazol-2-yl]nitramide]
- Mean % mortality ([1]; 1 day post-treatment): 0.80 a %
- Mean % mortality ([1]; 2 days post-treatment): 5.30 b %
- Mean % mortality ([1]; 3 days post-treatment): 23.25 a %
- Mean % mortality ([1]; 4 days post-treatment): 30.00 a %
- Mean % mortality ([1]; 5 days post-treatment): 55.00 a %
- Mean % mortality ([1]; 6 days post-treatment): 88.75 b %
- Mean % mortality ([1]; 7 days post-treatment): 100.00 a %
- Mean % mortality ([1]; 8 days post-treatment): 100.00a %
- Mean % mortality ([2]; 1 day post-treatment): 6.35 a %
- Mean % mortality ([2]; 2 days post-treatment): 12.00 b %
- Mean % mortality ([2]; 3 days post-treatment): 75.00 a %
- Mean % mortality ([2]; 4 days post-treatment): 80.00 a %
- Mean % mortality ([2]; 5 days post-treatment): 80.00 c %
- Mean % mortality ([2]; 6 days post-treatment): 100.00 a %
- Mean % mortality ([2]; 7 days post-treatment): 100.00 a %
- Mean % mortality ([2]; 8 days post-treatment): 100.00 a %
- mortality at 50 ppm [3, 5]: 9%
- mortality at 50 ppm [3, 6]: 0%
- mortality at 50 ppm [3, 7]: 3.75%
- mortality at 50 ppm [3, 8]: 17.5%
- mortality at 50 ppm [3, 9]: 17.5%
- mortality at 50 ppm [3, 10]: 32.5%
- mortality at 50 ppm [3, 11]: 1.25%
- mortality at 50 ppm [3, 12]: 12.5%
- mortality at 50 ppm [3, 13]: 85%
- mortality at 50 ppm [3, 14]: 31.2%
- mortality at 50 ppm [3, 15]: 52.5%
- mortality at 50 ppm [3, 16]: 5%
- mortality at 50 ppm [3, 17]: 22.5%
- mortality at 50 ppm [3, 18]: 96.2%
- mortality at 50 ppm [3, 19]: 86.2%
- mortality at 50 ppm [3, 20]: 67.2%
- mortality at 50 ppm [3, 21]: 33.8%
- mortality at 50 ppm [3, 22]: 37.5%
- mortality at 50 ppm [3, 23]: 100%
- mortality at 50 ppm [3, 24]: 100%
- mortality at 50 ppm [3, 25]: 76.2%
- mortality at 50 ppm [3, 26]: 72.5%
- mortality at 50 ppm [3, 27]: 55%
- mortality at 50 ppm [3, 28]: 100%
- mortality at 50 ppm [3, 29]: 100%
- mortality at 50 ppm [3, 30]: 87.5%
- mortality at 50 ppm [3, 31]: 82.5%
- mortality at 50 ppm [3, 32]: 67.5%
- mortality at 50 ppm [3, 33]: 100%
- mortality at 50 ppm [3, 34]: 100%
- mortality at 50 ppm [3, 35]: 96.2%
- mortality at 50 ppm [3, 36]: 93.8%
- mortality at 50 ppm [3, 37]: 91.2%
- mortality at 50 ppm [3, 38]: 100%
- mortality at 50 ppm [3, 39]: 100%
- mortality at 50 ppm [3, 40]: 97%
- mortality at 50 ppm [3, 41]: 95%
- mortality at 50 ppm [3, 42]: 96.2%
- mortality at 50 ppm [3, 43]: 100%
- mortality at 50 ppm [3, 44]: 100%
- Mean % mortality of donors and recipients ([3]; by treatment (all ratios), 4 h): 9.68 b %
- Mean % mortality of donors and recipients ([3]; by treatment (all ratios), 7 d): 97.81 a %
- mortality at 50 ppm [4, 5]: 27%
- mortality at 50 ppm [4, 6]: 10%
- mortality at 50 ppm [4, 7]: 21.2%
- mortality at 50 ppm [4, 8]: 43.8%
- mortality at 50 ppm [4, 9]: 33.8%
- mortality at 50 ppm [4, 10]: 64.4%
- mortality at 50 ppm [4, 11]: 30%
- mortality at 50 ppm [4, 12]: 51.2%
- mortality at 50 ppm [4, 13]: 80%
- mortality at 50 ppm [4, 14]: 96.2%
- mortality at 50 ppm [4, 15]: 64.4%
- mortality at 50 ppm [4, 16]: 30%
- mortality at 50 ppm [4, 17]: 51.2%
- mortality at 50 ppm [4, 18]: 80%
- mortality at 50 ppm [4, 19]: 96.2%
- mortality at 50 ppm [4, 20]: 73.4%
- mortality at 50 ppm [4, 21]: 33.8%
- mortality at 50 ppm [4, 22]: 60%
- mortality at 50 ppm [4, 23]: 100%
- mortality at 50 ppm [4, 24]: 100%
- mortality at 50 ppm [4, 25]: 73.4%
- mortality at 50 ppm [4, 26]: 72.5%
- mortality at 50 ppm [4, 27]: 71.2%
- mortality at 50 ppm [4, 28]: 100%
- mortality at 50 ppm [4, 29]: 100%
- mortality at 50 ppm [4, 30]: 90.9%
- mortality at 50 ppm [4, 31]: 76.2%
- mortality at 50 ppm [4, 32]: 87.5%
- mortality at 50 ppm [4, 33]: 100%
- mortality at 50 ppm [4, 34]: 100%
- mortality at 50 ppm [4, 35]: 98.4%
- mortality at 50 ppm [4, 36]: 98.8%
- mortality at 50 ppm [4, 37]: 95%
- mortality at 50 ppm [4, 38]: 100%
- mortality at 50 ppm [4, 39]: 100%
- mortality at 50 ppm [4, 40]: 100%
- mortality at 50 ppm [4, 41]: 100%
- mortality at 50 ppm [4, 42]: 100%
- mortality at 50 ppm [4, 43]: 100%
- mortality at 50 ppm [4, 44]: 100%
- Mean % mortality of donors and recipients ([4]; by treatment (all ratios), 4 h): 27.18 a %
